“Also recorded” adds a separate entry of the source. One block for each substance: values may come before it. Where no end group is shown, it is not given here.
What was measured:
Mis16 [1] = target: T1, Mis16 (Schizosaccharomyces pombe, UniProt O94244); assay: ITC binding of peptides to Mis16; parameters: species or system S. pombe; conditions: for binding to Mis16 (in words): 30°C, mutants of the Mis19 C-terminal peptide (residues 97–112)
T1 construct: double-Strep-Tactin tag (TEV protease-cleavable) (N, cleaved yes); made in house; host or cells: insect cells (baculovirus made in Sf21, expression in Hi5)
T1 sequence (O94244 whole entry, the tested form may be a part): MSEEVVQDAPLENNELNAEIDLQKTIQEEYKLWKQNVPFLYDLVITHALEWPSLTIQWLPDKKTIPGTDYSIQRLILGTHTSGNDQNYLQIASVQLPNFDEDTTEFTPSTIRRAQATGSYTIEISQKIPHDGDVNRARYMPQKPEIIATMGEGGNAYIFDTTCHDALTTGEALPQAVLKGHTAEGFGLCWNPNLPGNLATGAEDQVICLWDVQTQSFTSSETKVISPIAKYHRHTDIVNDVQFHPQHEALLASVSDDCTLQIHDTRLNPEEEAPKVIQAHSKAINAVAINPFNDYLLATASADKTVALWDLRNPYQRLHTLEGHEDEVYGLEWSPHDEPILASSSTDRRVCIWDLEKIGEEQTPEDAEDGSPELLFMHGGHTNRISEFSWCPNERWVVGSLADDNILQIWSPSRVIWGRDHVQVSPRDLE
Protocol: (§1) ITC experiments were performed at 30°C using an iTC200 (MicroCal). Samples were concentrated in a 50 mM Tris, pH 7.5, 100 mM NaCl, 4% glycerol, and […] buffer. Protein concentrations were determined using a spectrophotometer. The concentration of protein complex in the ITC cell was 26 μM. The lyophilised peptides of histone H4^27–50 or Mis19^97–112 were dissolved in the ITC buffer to a concentration of 260 μM. 3-μl injections were performed at 1,000 rpm stirring speed with an injection spacing of 3 min. The thermodynamic data were processed with the ORIGIN program (MicroCal).

Mis16 [2] = target: T1, Mis16; assay: ITC competition between H4α1 and Mis19 site C peptides for Mis16; format: binding, S. pombe; conditions: Mis16 preincubated with one peptide before titration of the second, 30°C, pH 7.5
Protocol: Figure 3.
as §1

[3] = tested on: Mis16–Mis18–Mis19 complex; assay: Competition assay by size-exclusion chromatography: disruption of Mis16–Mis18–Mis19 complex; format: binding, S. pombe; conditions: preformed complex challenged with peptides from Mis19 N terminus
Description: It has previously been reported that the interaction between Mis18 and Mis 19 occurs via the N-terminal region of Mis19 binding to the C terminus (coiled-coil) of Mis18 ([Hayashi et al, 2014]). We tried to analyse this interaction in more detail. Given that residues 56–112 of Mis19 are involved interactions with Mis16, we constructed two truncations of Mis19 with half of the remaining N-terminal residues deleted in each case (Mis19^27-C and Mis19^44-C). We first asked if these Mis16–Mis19 constructs could still interact with Mis18 in an affinity pull-down experiment (Figs 6A and S6A). […] We then add Mis18 to the Mis16–Mis19 constructs. […] To further analyse these interactions, we carried out competition assays, challenging preformed Mis16–Mis18–Mis19 complex with peptides from the N terminus of Mis19, analysing the results both by size-exclusion chromatography and affinity pull-down assays. […] To try and pinpoint the residues that might be responsible for the interaction with Mis18, we carried out a sequence alignment of the Mis19 N terminus and noticed two conserved stretches of residues characterised by an IxxxF pattern (motif 1) and LxxF (motif 2) (Fig 7A). The two motifs are coincident with the two truncations we identified: between residues 1–27 and 28–44, respectively. As the N terminus of Mis19 is likely to be solvent-exposed (from our crystal structure), we reasoned that the conserved hydrophobic residues probably participate in protein–protein interactions. To test this, we carried out another set of competition experiments using the intact Mis16–18–19 complex and peptides carrying mutations in motifs 1 and 2, separately or combined (Fig 7B).
Figure 6. The Mis19 N terminus binds Mis18. (A) Mis16–Mis18–Mis19 interactions assessed by pull-down. Input proteins are shown on the left. Binding of Mis16–Mis19 and Mis19 truncations to Mis18 are assessed by pull-down of Mis19 (right). (B) Mis16–19–18 binding assessed by size-exclusion and competition assays. Preformed Mis16–18–19 complex was challenged with peptides derived from the N terminus of Mis19 (indicated). […]

[4] = tested on: Mis16–Mis18–Mis19 complex; assay: Competition assay by pull-down: disruption of Mis16–Mis18–Mis19 complex; format: binding, S. pombe; conditions: preformed Mis16–Mis19–Strep–Mis18 complex challenged with peptide, SDS–PAGE
Description: It has previously been reported that the interaction between Mis18 and Mis 19 occurs via the N-terminal region of Mis19 binding to the C terminus (coiled-coil) of Mis18 ([Hayashi et al, 2014]). We tried to analyse this interaction in more detail. Given that residues 56–112 of Mis19 are involved interactions with Mis16, we constructed two truncations of Mis19 with half of the remaining N-terminal residues deleted in each case (Mis19^27-C and Mis19^44-C). We first asked if these Mis16–Mis19 constructs could still interact with Mis18 in an affinity pull-down experiment (Figs 6A and S6A). […] We then add Mis18 to the Mis16–Mis19 constructs. […] To further analyse these interactions, we carried out competition assays, challenging preformed Mis16–Mis18–Mis19 complex with peptides from the N terminus of Mis19, analysing the results both by size-exclusion chromatography and affinity pull-down assays. […]
Figure 6. […] (A) Mis16–Mis18–Mis19 interactions assessed by pull-down. […] Binding of Mis16–Mis19 and Mis19 truncations to Mis18 are assessed by pull-down of Mis19 (right). (B) Mis16–19–18 binding assessed by size-exclusion and competition assays. […]
All in vitro pull-down assays were performed using purified proteins or protein complexes. […] Input and pull-down elution samples were analysed by SDS–PAGE.

Mis16 [5] = target: T1, Mis16; assay: Co-expression and affinity pull-down/size-exclusion co-purification of Mis19 deletions with Mis16; format: binding, S. pombe; conditions: co-expressed in insect cells, Strep-Tactin tag on Mis16, gel filtration, SDS–PAGE band
Description: Figure 2. Mis16–Mis19 contact regions. (A) Crystal structure of Mis16–Mis19 highlighting the Mis19-binding sites. Three putative binding sites A, B, and C (lighter to darker orange from N terminus to C terminus) are indicated. (B) Schematic of the various deletion constructs of Mis19 are used for binding studies showing the positions of sites A, B, and C. (C) Constructs containing affinity-tagged Mis16 and the Mis19 deletions shown above were co-expressed and purified by affinity pull-down and size-exclusion chromatography. SDS–PAGE gel of peak fractions is shown. Asterisks indicate impurities. (D) Close-up of the A- and C-binding sites. The locations of the kis1-1 (R65) and eic1-1 (F102) t.s. mutant residues are shown.
The C-terminal interaction of Mis19 with Mis16 (site C in our nomenclature) has been previously described ([An et al, 2018]). […] To test the contribution of the individual sites to the Mis16–Mis19 interaction, various truncated Mis19 constructs were designed, for which site A, […], or both A and C are missing (Fig 2B). Full-length Mis16 and Mis19C (includes sites A, B, and C, residues 52–112), construct 1 (includes site B and C, residues 66–112), construct 2 (includes binding site B, residues 66–99), and construct 3 (includes site A and B, residues 52–99) were co-expressed in insect cells, as the isolated Mis19 truncations cannot be expressed and purified. The complexes were purified using a Strep-Tactin affinity tag on Mis16 and subsequent gel filtration step. All complexes elute from gel filtration as a single species. […] This site is formed by part of the unstructured region of Mis19 running across the top edge of Mis16.
All proteins were expressed in insect cells using standard procedures. Genes were codon-optimised in all cases (GeneArt). Single protein constructs were cloned in pFastBac vectors (Invitrogen), whereas multi-protein complexes were cloned using the MultiBac system ([Fitzgerald et al, 2006]). The Mis16 protein carried a TEV protease-cleavable double-Strep-Tactin tag at the N terminus for purification purposes. All clones were sequence verified. […]

[6] = ITC, 50 mM Tris, pH 7.5, 100 mM NaCl, 4% glycerol

- binding to Mis16 (in words) (Mis16 [1]; [6]): reduced but did not abolish binding
Substance: LHNRSFLRRNVRAVKM [Mis19 V101S]

- competition / displacement of the other peptide from Mis16 (in words) (Mis16 [2]): capable of competing out histone H4α1
- increase in affinity over H4α1 (Mis16 [1]; ratio of KD values, Mis16, ITC): 3.6 fold
Substance: LHNRVFLRRNVRAVKM [Mis19α2]

- binding to Mis16 (in words) (Mis16 [1]; [6]): reduced but did not abolish binding
Substance: LHNRVSLRRNVRAVKM [Mis19 F102S]

- binding to Mis16 (in words) (Mis16 [1]; [6]): substantially reduced binding
Substance: Mis19 R105A: point mutant of the Mis19 C-terminal peptide (residues 97–112) (LHNRVFLRANVRAVKM)

- binding to Mis16 (in words) (Mis16 [1]; [6]): completely abolished the interaction
- KD (Mis16 [1]; ITC, iTC200, 30°C, 50 mM Tris, pH 7.5, 100 mM NaCl, 4% glycerol, 0.5 TCEP, 26 μM in cell, peptide 260 μM, 3-μl injections, 1,000 rpm, spacing 3 min): no binding
Substance: Mis19 V101S F102S R105A: triple mutant of the Mis19 C-terminal peptide (residues 97–112) (LHNRSSLRANVRAVKM; UniProt O42995 97-112, looked up, variant V101S F102S R105A)

Substance: Mis19^1–27: peptide from the N terminus of Mis19 (MDLMPLEKARAIEIAFDNVFHNTKIPD)
- disruption of preformed Mis16–Mis18–Mis19 complex (size-exclusion) [3]: no effect on complex formation
- disruption of preformed Mis16–Mis18–Mis19 complex (pull-down) [4]: no effect on complex formation

Substance: Mis19^1–44: peptide from the N terminus of Mis19 (MDLMPLEKARAIEIAFDNVFHNTKIPDNLQQFDAILKRLERRRF)
- disruption of preformed Mis16–Mis18–Mis19 complex (size-exclusion) [3]: effectively disrupts the complex, splitting it into a Mis18-containing and Mis16–Mis19–containing fractions

Substance: Mis19^28–44: peptide from the N terminus of Mis19 (NLQQFDAILKRLERRRF)
- disruption of preformed Mis16–Mis18–Mis19 complex (size-exclusion) [3]: no effect on complex formation
- disruption of preformed Mis16–Mis18–Mis19 complex (pull-down) [4]: no effect on complex formation

- association with Mis16 (Mis16 [5]): Mis19 is associated with Mis16
Substance: construct 1: Mis19 deletion, includes site B and C, residues 66–112 (EFGVKDNHNHPINLHSLRSKSLIRAQGKKLDLHNRVFLRRNVRAVKM; UniProt O42995 66-112, looked up, fragment)

- association with Mis16 (Mis16 [5]): only Mis16 could be detected
Substance: construct 2: Mis19 deletion, includes binding site B, residues 66–99 (EFGVKDNHNHPINLHSLRSKSLIRAQGKKLDLHN; UniProt O42995 66-99, looked up, fragment)

Substance: construct 3: Mis19 deletion, includes site A and B, residues 52–99 (PRVYETELLVLRFREFGVKDNHNHPINLHSLRSKSLIRAQGKKLDLHN; UniProt O42995 52-99, looked up, fragment)
- association with Mis16 (Mis16 [5]): Mis19 is associated with Mis16; also recorded: still able to interact with Mis16, although rather more weakly than the full-length protein

From publication PMC6677171, “Subunit interactions and arrangements in the fission yeast Mis16–Mis18–Mis19 complex” (Life Science Alliance, 2019)
